Measurements published in ChEMBL document CHEMBL3046441, “Importance of physicochemical properties for the design of new pesticides” (J Agric Food Chem, 2011).

Experiments:
[1] = biological target: T1, Nicotinic acetylcholine receptor alpha8 subunit (Periplaneta americana) (UniProt H6TY12); assay: Neuroblocking activity in Periplaneta americana (American cockroach) nicotinic acetylcholine receptor in abdominal fifth and sixth ganglia nerve assessed as neuroblocking concentration by neurophysiological test
T1 sequence (whole entry): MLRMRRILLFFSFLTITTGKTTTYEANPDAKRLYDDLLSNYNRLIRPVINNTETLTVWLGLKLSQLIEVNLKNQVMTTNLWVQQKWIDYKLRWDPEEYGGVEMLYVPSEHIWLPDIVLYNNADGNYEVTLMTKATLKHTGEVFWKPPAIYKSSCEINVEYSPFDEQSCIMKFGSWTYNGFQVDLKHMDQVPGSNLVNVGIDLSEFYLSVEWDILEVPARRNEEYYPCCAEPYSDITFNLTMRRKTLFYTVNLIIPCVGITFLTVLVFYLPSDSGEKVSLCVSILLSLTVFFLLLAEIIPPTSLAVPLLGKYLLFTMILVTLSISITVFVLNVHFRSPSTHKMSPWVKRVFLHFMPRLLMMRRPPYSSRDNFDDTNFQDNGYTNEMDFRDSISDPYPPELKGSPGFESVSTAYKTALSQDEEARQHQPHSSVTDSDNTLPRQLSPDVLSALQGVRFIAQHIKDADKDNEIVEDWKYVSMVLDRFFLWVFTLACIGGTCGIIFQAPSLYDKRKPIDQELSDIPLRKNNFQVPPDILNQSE

Periplaneta americana = assay: Toxic effect in Periplaneta americana (American cockroach) assessed as paralyzed insects after 24 hr of abdomen compound injection by insecticidal assay; type: functional
[2] = Dissociation constant, pKa of the compound at pH 7.3; type: physicochemical
[3] = Apparent hydrophobicity, log D of the compound in Octanol-buffer; type: physicochemical; conditions: for logD: octanol/buffer; for logD(app): octanol/water
[4] = Hydrophobicity, log P of the compound in octanol-water by shaking-flask method; type: physicochemical

Structure (SMILES)	pKa [2]	logD [3]	other results
O=[N+]([O-])/C=C1\NCCN1Cc1ccc(Cl)nc1			log(1/BC) [1]: 5.02; log(1/MLD) (Periplaneta americana): 10.19
O=[N+]([O-])/N=C1\NCCCN1Cc1ccc(Cl)nc1			log(1/BC) [1]: 5.35; log(1/MLD) (Periplaneta americana): 10.12
O=[N+]([O-])/C=C1\SCCN1Cc1ccc(Cl)nc1			log(1/BC) [1]: 6.19; log(1/MLD) (Periplaneta americana): 10.37
CN1CCN(Cc2ccc(Cl)nc2)/C1=N/[N+](=O)[O-]			log(1/BC) [1]: 3.81; log(1/MLD) (Periplaneta americana): 8.62
O=[N+]([O-])/N=c1\ccccn1Cc1ccc(Cl)nc1			log(1/BC) [1]: 5.09; log(1/MLD) (Periplaneta americana): 9.99
O=[N+]([O-])/N=c1\ccccn1Cc1cnc(Cl)s1			log(1/BC) [1]: 5.75; log(1/MLD) (Periplaneta americana): 9.74
O=[N+]([O-])/C=C1\CCCN1Cc1ccc(Cl)nc1			log(1/BC) [1]: 6.43; log(1/MLD) (Periplaneta americana): 10.44
O=[N+]([O-])/C=C1\NCCN1Cc1cnc(Cl)s1			log(1/BC) [1]: 5.73; log(1/MLD) (Periplaneta americana): 10.24
O=[N+]([O-])/N=C1\SCCN1Cc1cnc(Cl)s1			log(1/BC) [1]: 6; log(1/MLD) (Periplaneta americana): 8.91
O=[N+]([O-])/C=C1\CCCN1Cc1cnc(Cl)s1			log(1/BC) [1]: 6.31; log(1/MLD) (Periplaneta americana): 10.06
CN1CCN(Cc2ccc(Cl)nc2)/C1=C/[N+](=O)[O-]			log(1/BC) [1]: 3.84; log(1/MLD) (Periplaneta americana): 8.07
O=[N+]([O-])/N=c1\[nH]ccn1Cc1cnc(Cl)s1			log(1/BC) [1]: 4.61; log(1/MLD) (Periplaneta americana): 8.82
O=[N+]([O-])/N=c1\sccn1Cc1cnc(Cl)s1			log(1/BC) [1]: 5.79; log(1/MLD) (Periplaneta americana): 8.85
COc1ccc(CCN(C)CCCC(C#N)(c2ccc(OC)c(OC)c2)C(C)C)cc1OC (stereo not given)	1.36		
O=[N+]([O-])/N=c1\sccn1Cc1ccc(Cl)nc1			log(1/BC) [1]: 5.68; log(1/MLD) (Periplaneta americana): 10.25
CCCC(=O)Nc1ccc(OCC(O)CNC(C)C)c(C(C)=O)c1 (stereo not given) [ACEBUTOLOL]	2.11		
CC(=O)Nc1ccc(O)cc1 [ACETAMINOPHEN]	0		
C=CCc1ccccc1OCC(O)CNC(C)C (stereo not given) [ALPRENOLOL]		1.35	logP [4]: 2.89
Cc1c(N(C)C)c(=O)n(-c2ccccc2)n1C [AMINOPYRINE]	0		
Cc1cc(=O)n(-c2ccccc2)n1C [ANTIPYRINE]	0		
CCNc1nc(Cl)nc(NC(C)C)n1 [ATRAZINE]		2.61	
CC(C)N1C(=O)c2ccccc2NS1(=O)=O [BENTAZON]			logP [4]: 2.8

Structure (SMILES)	pKa [2]	logD [3]	other results
CCOP(=S)(NC(C)CC)Oc1cc(C)ccc1[N+](=O)[O-] (stereo not given) [BUTAMIFOS]	0	4.62	
O=C(N[C@H](CO)[C@H](O)c1ccc([N+](=O)[O-])cc1)C(Cl)Cl [CHLORAMPHENICOL]	0		
Cc1cc(C)cc(C(=O)N(NC(=O)c2ccc3c(c2C)CCCO3)C(C)(C)C)c1 [CHROMAFENOZIDE]		2.7	
Clc1cccc(Cl)c1N=C1NCCN1 [CLONIDINE]	0.75	0.93	
C[C@]12C[C@H](O)[C@H]3[C@@H](CCC4=CC(=O)CC[C@@]43C)[C@@H]1CC[C@@H]2C(=O)CO [CORTICOSTERONE]	0	1.94	
O=c1ccc2ccccc2o1 [COUMARIN]	0		
O=[N+]([O-])Nc1nccn1Cc1ccc(Cl)nc1 [DEHYDROIMIDACLOPRID]			log(1/BC) [1]: 4.31; log(1/MLD) (Periplaneta americana): 8.72
C[C@@H]1C[C@H]2[C@@H]3CCC4=CC(=O)C=C[C@]4(C)[C@@]3(F)[C@@H](O)C[C@]2(C)[C@@]1(O)C(=O)CO [DEXAMETHASONE]	0	2.01	
COc1ccc([C@@H]2Sc3ccccc3N(CCN(C)C)C(=O)[C@@H]2OC(C)=O)cc1 [DILTIAZEM]	0.76	2.29	
CCOP(=S)(OCC)Oc1cc(C)nc(C(C)C)n1 [DIMPYLATE]		3.3	
COP(=S)(OC)Oc1ccc([N+](=O)[O-])c(C)c1 [FENITROTHION]	0	3.3	
CCC(C)c1ccccc1OC(=O)NC (stereo not given) [FENOBUCARB]	0	2.78	
COP(=S)(OC)Oc1ccc(SC)c(C)c1 [FENTHION]	0	4.09	
CC(C)(C)N(NC(=O)c1ccc(Cl)cc1)C(=O)c1ccccc1 [HALOFENOZIDE]	0	3.22	
C[C@]12CCC(=O)C=C1CC[C@@H]1[C@@H]2[C@@H](O)C[C@@]2(C)[C@H]1CC[C@]2(O)C(=O)CO [HYDROCORTISONE]	0	1.61	
CC(C)Cc1ccc(C(C)C(=O)O)cc1 (stereo not given) [IBUPROFEN]		1.54	
O=[N+]([O-])/N=C1\NCCN1Cc1ccc(Cl)nc1 [IMIDACLOPRID]			log(1/BC) [1]: 5.64; log(1/MLD) (Periplaneta americana): 10.15
O=[N+]([O-])NC1=NCCN1Cc1ccc(Cl)nc1 [IMIDACLOPRID]	0	0.59	
O=[N+]([O-])/N=C1\NCCN1Cc1cnc(Cl)s1 [IMIDACLOTHIZ]			log(1/BC) [1]: 5.97; log(1/MLD) (Periplaneta americana): 9.62
CC(C)c1cc(NC(=O)N(C)C)no1 [ISOURON]			logP [4]: 1.98
CC(C(=O)O)c1cccc(C(=O)c2ccccc2)c1 (stereo not given) [KETOPROFEN]		1.1	
CC(CCc1ccccc1)NCC(O)c1ccc(O)c(C(N)=O)c1 (stereo not given) [LABETALOL]	2.1	1.68	

Structure (SMILES)	pKa [2]	logD [3]	other results
COc1nn(CSP(=S)(OC)OC)c(=O)s1 [METHIDATHION]	0	2.5	
COc1cccc(C(=O)NN(C(=O)c2cc(C)cc(C)c2)C(C)(C)C)c1C [METHOXYFENOZIDE]	0	3.7	
COCCc1ccc(OCC(O)CNC(C)C)cc1 (stereo not given) [METOPROLOL]		0.24	
CC(C)(C)NCC(O)COc1cccc2c1CC(O)C(O)C2 (stereo not given) [NADOLOL]	2.37	-0.88	
CCn1cc(C(=O)O)c(=O)c2cc(F)c(N3CCNCC3)cc21 [NORFLOXACIN]	2.08		logD(app) [3]: -2.42
C=CCOc1ccccc1OCC(O)CNC(C)C (stereo not given) [OXPRENOLOL]	2.3	0.56	
CCOC(=O)C(SP(=S)(OC)OC)c1ccccc1 (stereo not given) [PHENTHOATE]	0	3.96	logP [4]: 3.96
O=C1NC(=O)C(c2ccccc2)(c2ccccc2)N1 [PHENYTOIN]		2.26	
CC(C)NCC(O)COc1cccc2[nH]ccc12 (stereo not given) [PINDOLOL]	2.24	0.25	
CN1CCN(CC(=O)N2c3ccccc3C(=O)Nc3cccnc32)CC1 [PIRENZEPINE]	0.7		logD(app) [3]: -0.37
CN1C(C(=O)Nc2ccccn2)=C(O)c2ccccc2S1(=O)=O [PIROXICAM]		0.49	
CC(=O)Nc1ccc(OCC(O)CNC(C)C)cc1 (stereo not given) [PRACTOLOL]	2.1	-0.62	
C[C@]12C=CC(=O)C=C1CC[C@@H]1[C@@H]2[C@@H](O)C[C@@]2(C)[C@H]1CC[C@]2(O)C(=O)CO [PREDNISOLONE]	0		
CNC(=C[N+](=O)[O-])NCCSCc1ccc(CN(C)C)o1 [RANITIDINE]	0.88		logD(app) [3]: -0.32
CC(C)(C)N(NC(=O)c1ccccc1)C(=O)c1ccccc1 [RH-5849]	0	2.45	
O=C(O)c1ccccc1O [SALICYLIC ACID]		-0.63	
COP1(=S)OCc2ccccc2O1 (stereo not given) [SALITHION]	0	2.67	
CCc1ccc(C(=O)NN(C(=O)c2cc(C)cc(C)c2)C(C)(C)C)cc1 [TEBUFENOZIDE]	0		
Cc1c(F)c(F)c(COC(=O)[C@@H]2[C@H](/C=C(\Cl)C(F)(F)F)C2(C)C)c(F)c1F [TEFLUTHRIN]			logP [4]: 6
C[C@]12CC[C@H]3[C@@H](CCC4=CC(=O)CC[C@@]43C)[C@@H]1CC[C@@H]2O [TESTOSTERONE]	0		
CCN(CC)C(=O)SCc1ccc(Cl)cc1 [THIOBENCARB]	0	3.42	
CCCN(CCC)c1c([N+](=O)[O-])cc(C(F)(F)F)cc1[N+](=O)[O-] [TRIFLURALIN]			logP [4]: 5.07
